Experimental data as given in publication PMC8963105, “A Novel Modulator of the Renin–Angiotensin System, Benzoylaconitine, Attenuates Hypertension by Targeting ACE/ACE2 in Enhancing Vasodilation and Alleviating Vascular Inflammation” (Frontiers in Pharmacology, 2022).

How the values were obtained:
[1] = biological target: T1, recombinant human ACE (rhACE) (Homo sapiens, UniProt P12821); assay: SPR assay with rhACE; format: binding; conditions: rhACE on chip, 5% DMSO–1.05× PBS
T1 construct: purchased Proteintech
Method: (§1) To screen the potential targets of the MDAs in hypertension, a CVDPlatform (www.cbligand.org/CVD) was used as previously reported ([Zhang et al., 2016a]). The results of database screening were verified by virtual docking with Discovery Studio 3.5 (BIOVIA, San Diego, CA, United States) and then validated in the SPR assay. In the SPR assay, a solution of protein standards was prepared, and the concentration of recombinant human ACE (rhACE) protein and rhACE2 (Proteintech, Rosemont, IL, United States) solution was set to 500 μg ml^−1. […] Finally, the level of binding between the proteins and each molecule was determined based on the K d value.

[2] = tested on: spontaneously hypertension rats (SHRs); assay: acute experiment: real-time blood pressure after i.v. injection in SHRs; format: in vivo, rat; conditions: for anti-hypertensive effect (in words): acute experiment, i.v. injection 0.6–6 mg kg^−1
Method: (§2) The SHRs were surgically implanted with a catheter via the left femoral artery, vein, and stomach after anesthetizing with 2% pentobarbital sodium (40 mg kg^−1 i.p.,). A pressure sensor was inserted into the terminal of the arterial catheter and connected to a PowerLab system (ADInstruments, New South Wales, Australia) for real-time blood pressure monitoring.
(§3) All three MDAs (BAC, BMC, and BHC) were purchased from Nature-Standard Co., Ltd. (Shanghai, China) and their purities were all over 98%. The anti-hypertensive effects of MDAs were studied in both acute and chronic experiments. The 16-week-old SHRs were used in animal experiments, and each group had six rats. In the acute experiment, drug administration was via i.v. injection. For i.v. injection, the animals were randomly assigned into four groups: vehicle (0.1% DMSO–0.9% salt solution, n = 6), low-dose group (0.6 mg kg^−1 body weight, n = 6), medium-dose group (2 mg kg^−1 body weight, n = 6), and high-dose group (6 mg kg^−1 body weight, n = 6). The drug was administered using a venous catheter. In chronic experiments, the animals were randomly assigned into five groups: vehicle (5% Tween 80–0.9% salt solution, n = 6), captopril group (5 mg kg^−1 body weight, n = 6), low-dose group (3 mg kg^−1 body weight, n = 6), medium-dose group (10 mg kg^−1 body weight, n = 6), and high-dose group (30 mg kg^−1 body weight, n = 6). Oral administration with drug or 5% Tween 80–0.9% salt solution was carried out once a day, and continued for 14 days. The drugs were dissolved in 0.1% DMSO–0.9% salt solution for intravenous injection and in 5% Tween 80–0.9% salt solution for oral administration. Blood pressure was recorded in real time.
(§4) Real-time blood pressure level was monitored after drug treatment in the acute and chronic experiments. All animals were surgically implanted with a catheter in the left femoral artery. After connection to the monitor, all animals were placed at room temperature of 25°C for 0.5–1 h and the average blood pressure value was calculated based on a real-time blood pressure curve (10 s of every 30 s).

[3] = biological target: T2, rhACE2 (Homo sapiens, UniProt Q9BYF1); assay: SPR assay with rhACE2; format: binding; conditions: rhACE2 on chip, 5% DMSO–1.05× PBS
T2 construct: purchased Proteintech
Method: as §1

[4] = biological target: rhACE (Homo sapiens, UniProt P12821); assay: ACE activity assay kit (enzyme kinetics, cell-free); format: biochemical
Method: (§5) ACE and ACE2 activities were measured using the ACE activity assay kit and SensoLyte390 ACE2 activity assay kit (Anaspec, Fremont, CA, United States), respectively, according to the manufacturer’s instructions with some modifications. Briefly, rhACE solution dissolved in deionized water was used for analysis. ACE activity was measured in a reaction system with 50 μl of the sample and 50 μl of the ACE substrate solution with or without BAC (10^–4 to 10^–2 μM). ACE2 activity was assayed in the same manner as ACE activity. All assays were performed every 10 s for 30 min at 37°C using a Varioskan LUX fluorescence microplate reader (Thermo Fisher Scientific, Waltham, MA, United States). The autofluorescence value in each assay was subtracted from the measured values to generate the final results. The relative fluorescence unit of each sample was normalized to the corresponding total protein concentration, which was measured using a Pierce BCA protein assay kit (Thermo Fisher Scientific).

[5] = biological target: hrACE2 (Homo sapiens, UniProt Q9BYF1); assay: SensoLyte390 ACE2 activity assay (enzyme kinetics, cell-free); format: biochemical; conditions: EC50 of BMC and BHC could not be determined
Method: as §5

[6] = tested on: spontaneously hypertension rats (SHRs); assay: chronic experiment: blood pressure, heart rate and aorta histology after 14-day oral administration in SHRs; format: in vivo, rat; conditions: once a day, 14 days
Method: as §2, §3, §4
After euthanizing the rats with sodium pentobarbital (100 mg kg^−1, i.p.) administration in combination with isoflurane inhalation, the aortas were harvested directly according to a previously described method. The aortas were fixed in 4% paraformaldehyde for 24 h and embedded in paraffin. The cross-sections (5 μm) were stained with hematoxylin and eosin or subjected to immunostaining. Immunofluorescence staining for ACE and ACE2 was performed according to the manufacturer’s instructions (Servicebio, Wuhan, China).

Sequence of rhACE (P12821 30-1306): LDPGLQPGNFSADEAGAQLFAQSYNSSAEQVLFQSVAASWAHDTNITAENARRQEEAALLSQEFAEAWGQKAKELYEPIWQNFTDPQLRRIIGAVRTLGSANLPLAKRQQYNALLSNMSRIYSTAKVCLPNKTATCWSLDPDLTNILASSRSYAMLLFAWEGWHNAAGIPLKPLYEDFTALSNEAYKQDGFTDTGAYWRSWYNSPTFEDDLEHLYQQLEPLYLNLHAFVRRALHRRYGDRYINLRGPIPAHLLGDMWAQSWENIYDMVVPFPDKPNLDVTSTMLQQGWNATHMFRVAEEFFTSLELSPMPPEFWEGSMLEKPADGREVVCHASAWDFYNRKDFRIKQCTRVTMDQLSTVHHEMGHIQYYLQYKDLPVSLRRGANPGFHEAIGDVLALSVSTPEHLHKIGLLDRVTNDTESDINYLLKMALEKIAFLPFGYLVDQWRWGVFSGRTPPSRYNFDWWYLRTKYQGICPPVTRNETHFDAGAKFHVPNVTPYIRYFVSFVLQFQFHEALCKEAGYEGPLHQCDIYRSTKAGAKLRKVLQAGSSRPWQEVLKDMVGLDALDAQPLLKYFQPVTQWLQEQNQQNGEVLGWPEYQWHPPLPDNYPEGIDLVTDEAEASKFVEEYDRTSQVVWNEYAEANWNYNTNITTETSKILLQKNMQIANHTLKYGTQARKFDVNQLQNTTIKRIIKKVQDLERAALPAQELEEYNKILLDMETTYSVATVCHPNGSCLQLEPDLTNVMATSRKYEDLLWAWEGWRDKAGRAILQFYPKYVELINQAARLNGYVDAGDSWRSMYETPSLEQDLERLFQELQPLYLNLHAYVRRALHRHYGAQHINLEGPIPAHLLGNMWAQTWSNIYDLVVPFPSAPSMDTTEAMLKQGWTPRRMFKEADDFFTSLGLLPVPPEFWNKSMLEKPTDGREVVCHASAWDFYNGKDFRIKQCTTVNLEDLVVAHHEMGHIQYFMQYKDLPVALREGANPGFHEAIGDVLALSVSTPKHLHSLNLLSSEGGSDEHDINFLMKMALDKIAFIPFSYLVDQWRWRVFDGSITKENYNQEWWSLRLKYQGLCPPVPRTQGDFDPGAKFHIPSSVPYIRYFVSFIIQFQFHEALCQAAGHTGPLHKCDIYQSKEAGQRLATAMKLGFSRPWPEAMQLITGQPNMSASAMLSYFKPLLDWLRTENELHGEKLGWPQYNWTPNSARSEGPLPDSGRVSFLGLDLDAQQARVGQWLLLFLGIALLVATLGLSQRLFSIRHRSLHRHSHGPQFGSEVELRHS
T1 sequence (P12821 30-1306): as above
Sequence of hrACE2 (Q9BYF1 18-805): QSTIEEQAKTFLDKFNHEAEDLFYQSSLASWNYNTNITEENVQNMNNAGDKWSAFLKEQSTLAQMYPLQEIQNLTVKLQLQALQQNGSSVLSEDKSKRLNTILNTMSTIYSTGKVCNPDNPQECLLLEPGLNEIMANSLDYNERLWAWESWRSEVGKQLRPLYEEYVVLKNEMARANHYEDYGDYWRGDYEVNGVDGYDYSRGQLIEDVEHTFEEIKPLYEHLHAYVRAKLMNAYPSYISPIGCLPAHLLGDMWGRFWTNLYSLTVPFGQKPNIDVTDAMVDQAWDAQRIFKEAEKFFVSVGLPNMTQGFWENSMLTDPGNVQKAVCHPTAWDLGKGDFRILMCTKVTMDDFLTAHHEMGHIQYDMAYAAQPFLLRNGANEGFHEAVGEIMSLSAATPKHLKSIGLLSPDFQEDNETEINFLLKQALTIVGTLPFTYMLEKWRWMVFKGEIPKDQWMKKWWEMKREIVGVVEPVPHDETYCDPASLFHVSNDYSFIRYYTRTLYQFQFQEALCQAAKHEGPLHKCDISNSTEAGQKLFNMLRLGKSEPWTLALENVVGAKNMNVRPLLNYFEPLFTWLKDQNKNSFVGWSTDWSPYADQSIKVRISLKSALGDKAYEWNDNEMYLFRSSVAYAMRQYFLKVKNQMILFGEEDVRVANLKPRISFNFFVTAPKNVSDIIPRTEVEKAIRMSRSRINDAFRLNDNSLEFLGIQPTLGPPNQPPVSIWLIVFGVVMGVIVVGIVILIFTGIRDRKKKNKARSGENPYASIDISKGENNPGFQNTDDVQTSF
T2 sequence (Q9BYF1 18-805): as above

| Compound | Kd [1] [µM] | anti-hypertensive effect (in words) [2] | Kd [3] [µM] | effect on ACE activity (in words) ([4]; IC50 could not be determined) | effect on ACE2 activity (in words) [5] | blood pressure reduction ([2]; i.v. injection, 6 mg kg^−1) | IC50 ([4]; 37°C, 30 min) [µM] | heart rate [6] |
| --- | --- | --- | --- | --- | --- | --- | --- | --- |
| COCC12CCC(OC)C34C5CC6(O)C(OC)C(O)C(O)(C5C6OC(=O)c5ccccc5)C(C(OC)C13)C4N(C)C2 (stereo not drawn) [BHC, Benzoylhypaconitine] | 139 | no anti-hypertensive effects | 308 | little effect | weaker pharmacodynamics effects |  |  |  |
| COCC12CN(C)C3C4C(OC)C1C3(C(OC)CC2O)C1CC2(O)C(OC)C(O)C4(O)C1C2OC(=O)c1ccccc1 (stereo not drawn) [BMC, Benzoylmesaconine] | 53.6 | observable anti-hypertensive effects | 20.5 |  | weaker pharmacodynamics effects | approximately 20 mmHg | 0.96 |  |
| C[C@H](CS)C(=O)N1CCC[C@H]1C(=O)O [captopril, reference compound] |  |  |  |  |  |  |  | Heart rate changed |
